Where “and” joins values, the source holds several entries; their conditions need not be identical. Equal values may be shown once.
Test system: 454973-116-R2-J3-PDC spheroids, percent test/control viability
Assay: Anticancer human tumor 454973-116-R2-J3-PDC patient-derived pancreatic carcinoma cell line growth inhibition [CLK]
Conditions: spheroids with HUVEC and MSC; for viability, T/C: stronger effect = lower value
Excerpt: A high-throughput screen of multi-cell type tumor spheroids was designed to identify active combinations of […] and targeted small molecules. Complex spheroids include a stromal component modeled by human endothelial cells (HUVEC) and fibroblasts modeled by human mesenchymal stem cells (MSCs). The concentration ranges selected for each drug and investigational agent were based upon clinically achievable concentrations if the clinical Cmax of the agent was known.
Compounds. The drugs and investigational agents: cirtuvivint (SM08502; NSC835563), CC-671 (NSC850746), vemurafenib (NSC761431), tapotoclax (NSC804041), sotorasib (NSC818433), adagrasib (NSC831453), MRTX-1133 (NSC836407), BAY2416964 (NSC825713), copanlisib (NSC816437), inavolisib (NSC800729), abemaciclib (NSC768073), osimertinib (NSC779217), entinostat (NSC756642), eltanexor (KPT-8602, NSC794443), venetoclax (NSC766270), ceralasertib (NSC777638), bortezomib (NSC756655), olaparib (NSC753686), talazoparib (NSC767125), alisertib (NSC759677), peposertib (NSC802822), gemcitabine (NSC613327), 5-fluorouracil (NSC19893), SN-38 (NSC673596), oxaliplatin (NSC266046), paclitaxel (NSC125973), and doxorubicin (NSC123127), were obtained from the National Cancer Institute (NCI) Developmental Therapeutics Program Chemical Repository. The FDA-approved anticancer drug set is available from the Developmental Therapeutics Program at https://dtp.cancer.gov/organization/dscb/obtaining/available plates.htm. […] The stock solutions were prepared in dimethyl sulfoxide (DMSO, Sigma-Aldrich, St. Louis, MO, cat. D2650), except for the platinum complexes which were prepared in saline (Quality Biological, Gaithersburg, MD, cat. 114-055-101), at 800-fold the tested concentration and stored at -70 degrees C prior to their use. All drugs and investigational agents were tested over a range starting from a high concentration at or near the clinical Cmax and decreasing in half-log increments. If the clinical Cmax for an agent had not been determined, the highest concentration tested was 10 microM.
Cell Culture. All cells were maintained in an incubator at 37 degrees C and 5% CO2 with 95% humidity. The PDC lines were cultured according to standard operating procedures established by the NCI PDMR. Briefly, all PDCs were thawed and cultured in Matrigel-coated flasks prepared with a working solution of 1X Ham's F-12 nutrient mix, without supplementation (Invitrogen, Waltham, MA, cat. 11765054), 100 U/mL penicillin-streptomycin (Invitrogen, cat. 15140122), and 2.5% Matrigel (Corning Inc., Corning, NY, cat. 354248) for the first three passages. The 947758-054-R-J2-PDC line was cultured in 6B/Colon 1A media, which includes advanced DMEM/F-12 (Thermo Fisher Scientific, cat. 12634028), 10 mM HEPES (Thermo Fisher Scientific, cat. 15630080), 1X GlutaMAX supplement (Thermo Fisher Scientific, cat. 35050061), 0.1 mg/mL primocin (InvivoGen, cat. ant-pm-2), 10% defined fetal bovine serum, heat inactivated (HyClone Laboratories Inc., cat. SH30070.03HI), 1.25 mM N-Acetyl-L-cysteine (Sigma-Aldrich, cat. A9165), 10 mM nicotinamide (Sigma-Aldrich, cat. N0636), 1X B-27 supplement (Thermo Fisher Scientific, cat. 17504044), 1X N-2 supplement (Thermo Fisher Scientific, cat. 17502048), and 10 microM Y-27632 dihydrochloride (Tocris Bioscience, cat. 1254). The 876862-298-R-J1-PDC was cultured in 6E media, which includes all 6B/Colon 1A media components plus 50% L-WRN conditioned media (ATCC, cat. CRL-3276), 50 ng/mL recombinant human EGF recombinant protein (hEGF; Thermo Fisher Scientific, cat. PHG0311), 10 ng/mL recombinant human fibroblast growth factor 10 (hGFG-10; PeproTech, cat. 100-26), 1 ng/mL recombinant human fibroblast growth factor 2 (hFGF-2; PeproTech, cat. 100-18B), and 1 µM prostaglandin E2 (PGE2; Tocris, cat. 2296). The 227483-062-R1-J1-PDC line was cultured in Panc media, containing all 6E components except hFGF-2, with the addition of 500 nM SB-431542 (Selleckchem, cat. S1067) and 10 nM gastrin (Tocris, cat. 3006). […]
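Also: spheroids exposed to compounds for 7 days before readout.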

In the case of `CC(=O)O[C@H]1C(=O)[C@@]2(C)[C@H]([C@H](OC(=O)c3ccccc3)[C@]3(O)C[C@H](OC(=O)[C@H](O)[C@@H](NC(=O)c4ccccc4)c4ccccc4)C(C)=C1C3(C)C)[C@]1(OC(C)=O)CO[C@@H]1C[C@@H]2O`, the viability, T/C (compound 0.0316 µM) is reported as 5.98% and 7.51%, the viability, T/C (compound 0.1 µM) is reported as 6.42% and 5.84% and the viability, T/C (compound 0.316 µM) is reported as 4.95% and 6.85%. The viability, T/C (compound 1 µM) was 5.57% and 6.35%, the viability, T/C (compound 3.16 µM) was 7.38% and 11.4% and the viability, T/C (compound 10 µM) was 16% and 15.4%. The IC50 (curve of compound) was < 31.6 nM.

In the case of `COc1ccc([C@@H](O)c2cc(-c3ncnc4cc(N5CCOCC5)ccc34)c(F)cc2Cl)nn1`, the viability, T/C (compound 0.0316 µM) is reported as 105% and 114%, the viability, T/C (compound 0.1 µM) is reported as 108% and 102% and the viability, T/C (compound 0.316 µM) is reported as 95.4% and 102%. For the same compound, the viability, T/C (compound 1 µM) was 92% and 89.2%, the viability, T/C (compound 3.16 µM) was 82.7% and 77.8% and the viability, T/C (compound 10 µM) was 54.3% and 51%. For the same compound, the IC50 (curve of compound) was > 10000 nM.

With `COc1cccc2c1C(=O)c1c(O)c3c(c(O)c1C2=O)CC(O)(C(=O)CO)CC3OC1CC(N)C(O)C(C)O1` (configuration not stated) the viability, T/C (compound 0.0316 µM) was 58.7% and 49.7%, the viability, T/C (compound 0.1 µM) was 23% and 19.8% and the viability, T/C (compound 0.316 µM) was 21.2% and 19.8%. The viability, T/C (compound 1 µM) was 6.76% and 3.88%, the viability, T/C (compound 3.16 µM) was 0.39% and 1.8% and the viability, T/C (compound 10 µM) was 2.07% and 3.53%. The IC50 (curve of compound) was 42.3 nM and < 31.6 nM.

For `Nc1ccn(C2OC(CO)C(O)C2(F)F)c(=O)n1` (configuration not stated), the viability, T/C (compound 0.0316 µM) was 11% and 7.61%, the viability, T/C (compound 0.1 µM) was 8.58% and 9.53% and the viability, T/C (compound 0.316 µM) was 8.12% and 7.99%. The viability, T/C (compound 1 µM) was 10.4% and 8.26%, the viability, T/C (compound 3.16 µM) was 9.96% and 7.45% and the viability, T/C (compound 10 µM) was 9.46% and 9.19%. For the same compound, the IC50 (curve of compound) was < 31.6 nM.

For `O=c1[nH]cc(F)c(=O)[nH]1`, the viability, T/C (compound 0.0316 µM) was 115% and 108%, the viability, T/C (compound 0.1 µM) was 98.1% and 101% and the viability, T/C (compound 0.316 µM) was 95.8% and 103%. The viability, T/C (compound 1 µM) was 64.2% and 43.4%, the viability, T/C (compound 3.16 µM) was 30.3% and 31.5% and the viability, T/C (compound 10 µM) was 35.5% and 36.6%. For the same compound, the IC50 (curve of compound) was 1700 nM and 881 nM.

In the case of `CCCS(=O)(=O)Nc1ccc(F)c(C(=O)c2c[nH]c3ncc(-c4ccc(Cl)cc4)cc23)c1F` + CN1CCN(c2cc(C(=O)Nc3cc4cc(-c5cnn(C)c5)ccc4cn3)ccn2)CC1, the IC50 (curve of first compound, second compound 0.0316 µM) is reported as 7050 nM, the IC50 (curve of first compound, second compound 0.1 µM) is reported as 5490 nM and the IC50 (curve of first compound, second compound 0.316 µM) is reported as < 31.6 nM. The IC50 (curve of first compound, second compound 1 µM) was < 31.6 nM, the IC50 (curve of first compound, second compound 3.16 µM) was < 31.6 nM and the IC50 (curve of first compound, second compound 10 µM) was < 31.6 nM. For the same compound, the viability, T/C (second compound 0.0316 µM, first compound 0.0316 µM) was 79.2%, the viability, T/C (second compound 0.0316 µM, first compound 0.1 µM) was 101% and the viability, T/C (second compound 0.0316 µM, first compound 0.316 µM) was 95.7%. For the same compound, the viability, T/C (second compound 0.0316 µM, first compound 1 µM) was 105%, the viability, T/C (second compound 0.0316 µM, first compound 3.16 µM) was 107% and the viability, T/C (second compound 0.0316 µM, first compound 10 µM) was 29.3%. The viability, T/C (second compound 0.1 µM, first compound 0.0316 µM) was 73.9%, the viability, T/C (second compound 0.1 µM, first compound 0.1 µM) was 80.6% and the viability, T/C (second compound 0.1 µM, first compound 0.316 µM) was 100%. The viability, T/C (second compound 0.1 µM, first compound 1 µM) was 96.7%, the viability, T/C (second compound 0.1 µM, first compound 3.16 µM) was 83.7% and the viability, T/C (second compound 0.1 µM, first compound 10 µM) was 13.2%. It also gave a viability, T/C (second compound 0.316 µM, first compound 0.0316 µM) of 1.36%, a viability, T/C (second compound 0.316 µM, first compound 0.1 µM) of 1.57% and a viability, T/C (second compound 0.316 µM, first compound 0.316 µM) of 1.57%. The viability, T/C (second compound 0.316 µM, first compound 1 µM) was 2.69%, the viability, T/C (second compound 0.316 µM, first compound 3.16 µM) was 2.52% and the viability, T/C (second compound 0.316 µM, first compound 10 µM) was 0.54%. The viability, T/C (second compound 1 µM, first compound 0.0316 µM) was 0.13%, the viability, T/C (second compound 1 µM, first compound 0.1 µM) was 0.17% and the viability, T/C (second compound 1 µM, first compound 0.316 µM) was 0.16%. For the same compound, the viability, T/C (second compound 1 µM, first compound 1 µM) was 0.11%, the viability, T/C (second compound 1 µM, first compound 3.16 µM) was 0.17% and the viability, T/C (second compound 1 µM, first compound 10 µM) was 0.07%. For the same compound, the viability, T/C (second compound 3.16 µM, first compound 0.0316 µM) was 0.14%, the viability, T/C (second compound 3.16 µM, first compound 0.1 µM) was 0.16% and the viability, T/C (second compound 3.16 µM, first compound 0.316 µM) was 0.2%. The viability, T/C (second compound 3.16 µM, first compound 1 µM) was 0.19%, the viability, T/C (second compound 3.16 µM, first compound 3.16 µM) was 0.74% and the viability, T/C (second compound 3.16 µM, first compound 10 µM) was 0.26%. The viability, T/C (second compound 10 µM, first compound 0.0316 µM) was 0.34%, the viability, T/C (second compound 10 µM, first compound 0.1 µM) was 0.17% and the viability, T/C (second compound 10 µM, first compound 0.316 µM) was 0.54%. The viability, T/C (second compound 10 µM, first compound 1 µM) was 0.22%, the viability, T/C (second compound 10 µM, first compound 3.16 µM) was 0.8% and the viability, T/C (second compound 10 µM, first compound 10 µM) was 2.02%.

Reference: PubChem BioAssay AID2060618 (Molecular Pharmacology Branch, DTP, NCI, 2025)
